Data: PubChem BioAssay (NCI)
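Exposure lasted 48 hours, with cells grown in 96-well plates and compounds tested at five concentrations. GI50 is the concentration that inhibits growth by half. TGI: total growth inhibition.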

tested on: HOP-62 NSCLC; assay: NCI anticancer screen, dose series, 48 h

Structure (SMILES)	GI50 [nM]	TGI [nM]
O=C(NC1=CC(=O)c2ccccc2C1=O)c1ccccc1	2760	16000

tested on: HOP-92 NSCLC; assay: NCI anticancer screen, dose series, 48 h

Structure (SMILES)	GI50 [nM]	TGI [nM]
COc1nc2ccccc2cc1-c1nc2c(cnn2-c2ccc(Br)cc2)c(=O)[nH]1	127	> 28300
CCN(CC)C(=S)N/N=C(/C)c1cccc(/C(C)=N\NC(=S)N(CC)CC)n1	–	7740
COc1cc(-c2ccc3c(c2)NC(=O)/C3=C\c2ccc[nH]2)ccc1O	> 24700	> 50000
O=C(NC1=CC(=O)c2ccccc2C1=O)c1ccccc1	572	2600

tested on: HS 578T breast; assay: NCI anticancer screen, dose series, 48 h

Structure (SMILES)	GI50 [nM]	TGI [nM]
COc1nc2ccccc2cc1-c1nc2c(cnn2-c2ccc(Br)cc2)c(=O)[nH]1	28.2	4710
CCN(CC)C(=S)N/N=C(/C)c1cccc(/C(C)=N\NC(=S)N(CC)CC)n1	–	> 100000
COc1cc(-c2ccc3c(c2)NC(=O)/C3=C\c2ccc[nH]2)ccc1O	26	> 50000
O=C(NC1=CC(=O)c2ccccc2C1=O)c1ccccc1	1090	71900

tested on: HT29 colon; assay: NCI anticancer screen, dose series, 48 h

Structure (SMILES)	GI50 [nM]	TGI [nM]
COc1nc2ccccc2cc1-c1nc2c(cnn2-c2ccc(Br)cc2)c(=O)[nH]1	19.1	> 50000
CCN(CC)C(=S)N/N=C(/C)c1cccc(/C(C)=N\NC(=S)N(CC)CC)n1	–	13200
COc1cc(-c2ccc3c(c2)NC(=O)/C3=C\c2ccc[nH]2)ccc1O	1050	> 50000
O=C(NC1=CC(=O)c2ccccc2C1=O)c1ccccc1	2330	4900

tested on: IGROV1 ovarian; assay: NCI anticancer screen, dose series, 48 h

Structure (SMILES)	GI50 [nM]	TGI [nM]
COc1nc2ccccc2cc1-c1nc2c(cnn2-c2ccc(Br)cc2)c(=O)[nH]1	59.1	> 50000
CCN(CC)C(=S)N/N=C(/C)c1cccc(/C(C)=N\NC(=S)N(CC)CC)n1	–	8080
COc1cc(-c2ccc3c(c2)NC(=O)/C3=C\c2ccc[nH]2)ccc1O	69.7	> 50000
O=C(NC1=CC(=O)c2ccccc2C1=O)c1ccccc1	1260	2850

tested on: K-562 leukemia; assay: NCI anticancer screen, dose series, 48 h

Structure (SMILES)	GI50 [nM]	TGI [nM]
COc1nc2ccccc2cc1-c1nc2c(cnn2-c2ccc(Br)cc2)c(=O)[nH]1	18.2	13400
CCN(CC)C(=S)N/N=C(/C)c1cccc(/C(C)=N\NC(=S)N(CC)CC)n1	–	11600
COc1cc(-c2ccc3c(c2)NC(=O)/C3=C\c2ccc[nH]2)ccc1O	< 11.8	> 50000
O=C(NC1=CC(=O)c2ccccc2C1=O)c1ccccc1	694	> 100000

tested on: KM12 colon; assay: NCI anticancer screen, dose series, 48 h

Structure (SMILES)	GI50 [nM]	TGI [nM]
COc1nc2ccccc2cc1-c1nc2c(cnn2-c2ccc(Br)cc2)c(=O)[nH]1	22.6	> 50000
CCN(CC)C(=S)N/N=C(/C)c1cccc(/C(C)=N\NC(=S)N(CC)CC)n1	–	4100
COc1cc(-c2ccc3c(c2)NC(=O)/C3=C\c2ccc[nH]2)ccc1O	21.4	> 50000
O=C(NC1=CC(=O)c2ccccc2C1=O)c1ccccc1	353	11500

tested on: LOX IMVI melanoma; assay: NCI anticancer screen, dose series, 48 h

Structure (SMILES)	GI50 [nM]	TGI [nM]
COc1nc2ccccc2cc1-c1nc2c(cnn2-c2ccc(Br)cc2)c(=O)[nH]1	27.6	> 50000
CCN(CC)C(=S)N/N=C(/C)c1cccc(/C(C)=N\NC(=S)N(CC)CC)n1	–	7360
COc1cc(-c2ccc3c(c2)NC(=O)/C3=C\c2ccc[nH]2)ccc1O	35.3	> 50000
O=C(NC1=CC(=O)c2ccccc2C1=O)c1ccccc1	1080	2630

tested on: M14 melanoma; assay: NCI anticancer screen, dose series, 48 h

Structure (SMILES)	GI50 [nM]	TGI [nM]
COc1nc2ccccc2cc1-c1nc2c(cnn2-c2ccc(Br)cc2)c(=O)[nH]1	20.4	2330
CCN(CC)C(=S)N/N=C(/C)c1cccc(/C(C)=N\NC(=S)N(CC)CC)n1	–	3630
COc1cc(-c2ccc3c(c2)NC(=O)/C3=C\c2ccc[nH]2)ccc1O	17.6	> 50000
O=C(NC1=CC(=O)c2ccccc2C1=O)c1ccccc1	874	4400

tested on: MALME-3M melanoma; assay: NCI anticancer screen, dose series, 48 h

Structure (SMILES)	GI50 [nM]	TGI [nM]
COc1nc2ccccc2cc1-c1nc2c(cnn2-c2ccc(Br)cc2)c(=O)[nH]1	519	> 50000
CCN(CC)C(=S)N/N=C(/C)c1cccc(/C(C)=N\NC(=S)N(CC)CC)n1	–	7410
COc1cc(-c2ccc3c(c2)NC(=O)/C3=C\c2ccc[nH]2)ccc1O	2650	> 50000
O=C(NC1=CC(=O)c2ccccc2C1=O)c1ccccc1	1700	3270

tested on: MCF7 breast; assay: NCI anticancer screen, dose series, 48 h

Structure (SMILES)	GI50 [nM]	TGI [nM]
COc1nc2ccccc2cc1-c1nc2c(cnn2-c2ccc(Br)cc2)c(=O)[nH]1	20.1	> 50000
CCN(CC)C(=S)N/N=C(/C)c1cccc(/C(C)=N\NC(=S)N(CC)CC)n1	–	5300
COc1cc(-c2ccc3c(c2)NC(=O)/C3=C\c2ccc[nH]2)ccc1O	88.8	> 50000
O=C(NC1=CC(=O)c2ccccc2C1=O)c1ccccc1	1050	2760

tested on: MDA-MB-231 breast; assay: NCI anticancer screen, dose series, 48 h

Structure (SMILES)	GI50 [nM]	TGI [nM]
COc1nc2ccccc2cc1-c1nc2c(cnn2-c2ccc(Br)cc2)c(=O)[nH]1	133	> 27400
CCN(CC)C(=S)N/N=C(/C)c1cccc(/C(C)=N\NC(=S)N(CC)CC)n1	–	7640
COc1cc(-c2ccc3c(c2)NC(=O)/C3=C\c2ccc[nH]2)ccc1O	40.9	> 50000
O=C(NC1=CC(=O)c2ccccc2C1=O)c1ccccc1	421	1760

tested on: MDA-MB-435; assay: NCI anticancer screen, dose series, 48 h

Structure (SMILES)	GI50 [nM]	TGI [nM]
COc1nc2ccccc2cc1-c1nc2c(cnn2-c2ccc(Br)cc2)c(=O)[nH]1	9.57	24
CCN(CC)C(=S)N/N=C(/C)c1cccc(/C(C)=N\NC(=S)N(CC)CC)n1	–	14900
O=C(NC1=CC(=O)c2ccccc2C1=O)c1ccccc1	940	2290

tested on: MDA-N; assay: NCI anticancer screen, dose series, 48 h

Structure (SMILES)	TGI [nM]
CCN(CC)C(=S)N/N=C(/C)c1cccc(/C(C)=N\NC(=S)N(CC)CC)n1	21400

tested on: MOLT-4 leukemia; assay: NCI anticancer screen, dose series, 48 h

Structure (SMILES)	GI50 [nM]	TGI [nM]
COc1nc2ccccc2cc1-c1nc2c(cnn2-c2ccc(Br)cc2)c(=O)[nH]1	87.9	> 50000
CCN(CC)C(=S)N/N=C(/C)c1cccc(/C(C)=N\NC(=S)N(CC)CC)n1	–	5770
COc1cc(-c2ccc3c(c2)NC(=O)/C3=C\c2ccc[nH]2)ccc1O	32	> 22100
O=C(NC1=CC(=O)c2ccccc2C1=O)c1ccccc1	2040	6220

tested on: NCI-H226 lung; assay: NCI anticancer screen, dose series, 48 h

Structure (SMILES)	GI50 [nM]	TGI [nM]
COc1nc2ccccc2cc1-c1nc2c(cnn2-c2ccc(Br)cc2)c(=O)[nH]1	510	> 50000
CCN(CC)C(=S)N/N=C(/C)c1cccc(/C(C)=N\NC(=S)N(CC)CC)n1	–	4770
COc1cc(-c2ccc3c(c2)NC(=O)/C3=C\c2ccc[nH]2)ccc1O	2060	> 50000
O=C(NC1=CC(=O)c2ccccc2C1=O)c1ccccc1	2670	15700
